Reference: patent publication US11517508B2, “Composition for single-paste type hydraulic endodontic filling material comprising dimethyl sulfoxide” (MARUCHI, priority 2016, dated 2022)

System: MC3T3-E1 cells
Assay: Cytotoxicity test (MTT) of solvents, material extracts on MC3T3-E1 cells
Assay type: cell-based
Conditions: p<0.05, FIG. 1
Method: FIG. 1 is a graph of a cytotoxicity test according to one embodiment of the invention. The test will be described with reference to FIG. 1.
A: NMP, B: DMSO, C: DEGEE, and D: DMSO 80%+DEGEE 20%
Cytotoxicity was measured with respect to the above four kinds of solvents by the following method:
(i) A specimen was placed in a mold with a thickness of 2 mm and a diameter of 10 mm, and hardened in an incubator at 37° C. for 3 days. (ii) A material extract was derived by filling the hardened specimen with a medium at a surface area/medium ratio of 0.5 cm^2 per ml and incubating it at 37° C. for 3 days. (iii) 1.5×10^4 MC3T3-E1 cells were seeded per well on a 24-well culture plate and incubated for 24 hours, and then the medium was sucked off. 1 ml of the material extract was placed in each well and set in triplicate. (iv) The material extracts were incubated for 24 hours, 48 hours and 72 hours, respectively, and then the medium was discarded. The material extracts were treated with 200 μl of 0.05% MTT solution, wrapped in aluminum foil, and reacted in the incubator at 37° C. for 2 hours. (v) 200 μl of DMSO was added after the reaction. Then, 200 μl of the reaction solution was transferred to each well in a 96-well plate and absorbance was measured at 590 nm.

[1] = all tests and all times (24, 48, 72 hours), compared with NMP groups

SMILES | cell survival rate [1] | cell survival rate (48 hours and 72 hours, comparison between solvent groups)
CCOCCOCCO [DEGEE, diethylene glycol monoethyl ether, reference compound] | higher cell survival rate than groups for which NMP was used as a solvent | –
C[S+](C)[O-] [DMSO, dimethyl sulfoxide] | higher cell survival rate than groups for which NMP was used as a solvent | significantly higher cell survival rate than groups for which DEGEE and a mixture of DMSO and DEGEE were used as solvents
